Assay results reported in publication PMC11054274, “Dual Antitubercular and Antileishmanial Profiles of Quinoxaline Di-N-Oxides Containing an Amino Acidic Side Chain” (Pharmaceuticals, 2024).
Where two headings read alike, the source gives them in different places.

What was measured:
[1] = system: Mycobacterium tuberculosis H37Rv; assay: In vitro activity against Mycobacterium tuberculosis H37Rv, microdilution AlamarBlue broth assay (BacTiter-Glo alternative read-out); format: cell-based; conditions: for IC90: read-out: IC90, antibacterial activity against Mtb H37Rv
[2] = system: Leishmania amazonensis promastigotes; assay: Promastigote susceptibility assay (resazurin), L. amazonensis; format: cell-based; conditions: for IC50: Table S2, 48 h, read-out: L. amazonensis IC50 (promastigote); for IC50 / activity against L. amazonensis (in words): promastigotes; for L. amazonensis promastigote selectivity index (SI): SI = CC50 (J774 macrophages)/IC50
Procedure: (§1) The following species of Leishmania were used: L. donovani (MHOM/IN/80/DD8), which was purchased (ATCC, Manassas, VA, USA), and L. amazonensis (MHOM/Br/79/Maria), which was kindly provided by Prof. Alfredo Toraño (Instituto de Salud Carlos III, Madrid, Spain). Promastigotes were cultured in Schneider’s Insect Medium supplemented with 10% heat-inactivated Fetal Bovine Serum (FBS) (SIGMA-Merck, Madrid, Spain) and 1000 U/L of penicillin plus 100 mg/L of streptomycin in 25 mL culture flasks at 26 °C.
(§2) The activity of the compounds on Leishmania promastigotes was performed according to the method previously reported by us. Briefly, promastigotes (2.5 × 10^5 parasites/well) were cultured in 96-well plastic plates. The compounds were dissolved in dimethylsulfoxide (DMSO). Serial dilutions at 1:2 of the test compounds in fresh culture medium were performed (100, 50, 25, 12.5, 6.25, 3.12, 1.56 and 0.78 µg/mL) in a final volume of 200 µL; the solutions were then added to the parasite suspension. After an incubation period of 48 h at 26 °C, a volume of 20 μL of 2.5 mM resazurin solution in PBS was added and the plates were incubated for 3 h under the same conditions. Finally, the Relative Fluorescence Unit (RFU) (535ex–590em nm wavelength) was determined in a fluorimeter (Infinite 200 Tecan i-Control). Growth inhibition (%) was calculated by 100—[(RFU treated wells—RFU signal-to-noise)/(RFU untreated—RFU signal-to-noise) × 100]. All tests were carried out in triplicate and the IC50 was calculated by probit analysis using SPSS 17.0 Statistics Software. Miltefosine (Sigma-Merck, Madrid, Spain) was used as the reference drug.

[3] = system: Leishmania amazonensis amastigotes; assay: Intracellular amastigote assay in J774 macrophages, L. amazonensis; format: cell-based; conditions: for IC50: Table S3, intracellular amastigotes, 48 h, read-out: L. amazonensis IC50 (amastigote)
Procedure: We performed an intracellular amastigote assay on L. amazonensis and L. donovani according to a fluorometric method reported by us. To carry out the in vitro macrophage infections, 5 × 10^4 cells were cultured in RPMI-1640 medium and then were infected with 5 × 10^5 promastigotes. In the L. donovani assays, the plates were incubated for 48 h at 37 °C, while in the L. amazonensis assays, they were incubated at 33 °C for the first 24 h and then the temperature was increased to 37 °C for the next 24 h. After, the culture medium was removed and the cells were washed with buffered RPMI-HEPES at pH 7.4 several times in order to eliminate the non-internalized promastigotes. A total of 100 µL of fresh medium tempered at 37 °C was added to the infected cells, which then were exposed to 100 µL of the test compounds in RPMI-1640 at different concentrations (100, 50, 25, 12.5, 6.25, 3.12, 1.56 and 0.78 µg/mL in a final volume of 200 µL) for 48 h at 37 °C. The culture medium was removed by centrifugation at 3500 rpm for 5 min (Centrifuge 5403 Eppendorf) and a lysis solution (0.02% sodium dodecyl sulfate in RPMI-HEPES) was added. After 20 min, the treated cells were harvested (centrifugation at 3500 rpm for 5 min at 4 °C) and the supernatants were replaced by 200 μL of fresh Schneider’s culture medium. The plates were then incubated at 26 °C for another 3 days to allow for the transformation of viable amastigotes into promastigotes and proliferation. Afterwards, 20 μL/well of 2.5 mM resazurin was added and incubated for another 3 h. Finally, URF was measured and IC50 was estimated as described above. All tests were carried out in triplicate. Miltefosine was used as the reference drug.

[4] = system: Leishmania donovani promastigotes; assay: Promastigote susceptibility assay (resazurin), L. donovani; format: cell-based; conditions: for IC50: Table S2, 48 h; for IC50 / activity against L. donovani (in words): promastigotes; for L. donovani promastigote selectivity index (SI): SI = CC50 (J774 macrophages)/IC50
Procedure: as §1, §2

[5] = system: J774 murine macrophages; assay: Cytotoxicity assay on macrophages (resazurin); format: cell-based; conditions: for CC50: 24 h exposure, read-out: Toxicity against J774 macrophages CC50
Procedure: (§3) J774 murine macrophages were grown in RPMI-1640 medium (Sigma) supplemented with 10% heat-inactivated FBS (30 min at 56 °C) (SIGMA-Merck), penicillin G (100 U/mL) and streptomycin (100 µg/mL). For the experiments, cells in the pre-confluence phase were harvested with trypsin. Cell cultures were maintained at 37 °C in a humidified environment with 5% CO2.
(§4) Cell viability was evaluated using a modification with resazurin of the colorimetric method described previously. J774 macrophages were seeded (5 × 10^4 cells/well) in 96-well flat-bottom microplates with 100 µL of RPMI-1640 medium. The cells were allowed to adhere for 4 h at 37 °C in 5% CO2, then different concentrations of the test compounds in 100 µL of the medium were added and exposed for 24 h. Growth controls were also included. To evaluate cell viability, 20 µL of a 2.5 mM resazurin solution was added and the plates were returned to the incubator for another 3 h. The reduction in resazurin was determined by measuring the fluorescence intensity (excitation wavelength, 535 nm; emission wavelength, 590 nm). Each concentration was assayed three times. The medium and controls were used in each test as blanks. The cytotoxic effect of the compounds was defined as the 50% reduction in cell viability of treated culture cells with respect to the untreated culture (CC50).

[6] = Cytotoxicity assay on macrophages (resazurin); format: cell-based, murine; conditions: mouse, J774 macrophages, Table S2; 24 h exposure; read-out: Toxicity against J774 macrophages CC50
Procedure: as §3, §4

[7] = Mycobacterium tuberculosis, Table S1, Mtb H37Rv, read-out: IC50, antibacterial activity against Mtb H37Rv
[8] = Mycobacterium tuberculosis, Table S1, Mtb H37Rv
[9] = Table S1, Mtb H37Rv, read-out: IC50, antibacterial activity against Mtb H37Rv
[10] = Mycobacterium tuberculosis, H37Rv strain, read-out: IC50 against Mycobacterium tuberculosis H37Rv

Molecule | IC50 [1, 7] [µM] | IC90 [1, 8] [µM] | IC50 [2] [µM] | IC50 [4] [µM] | IC50 [1, 9] [µM] | IC90 ([1]; Table S1, Mtb H37Rv) [µM] | CC50 ([5]; Table S2) [µM] | IC50 ([2]; Leishmania amazonensis) [µM] | L. amazonensis promastigote selectivity index (SI) [2] | IC50 ([4]; Leishmania donovani) [µM] | CC50 at 24 h [6] [µM] | other results
NCC[C@H](O)C(=O)N[C@@H]1C[C@H](N)[C@@H](O[C@H]2O[C@H](CN)[C@@H](O)[C@H](O)[C@H]2O)[C@H](O)[C@H]1O[C@H]1O[C@H](CO)[C@@H](O)[C@H](N)[C@H]1O [Amikacin, reference compound] | 0.07 | 0.08 | – | – | – | – | – | – | – | – | – | –
COC(=O)CNC(=O)c1c(-c2ccccc2)[n+]([O-])c2ccccc2[n+]1[O-] [Compound 4a, N-(1,4-Dioxide-3-phenylquinoxaline-2-carbonyl)glycine methyl ester] | – | – | 171 ± 8.5 | 103 ± 9.8 | 26.3 | 55.5 | 850 | – | – | – | – | IC50 [3]: 12.6 ± 0.3 µM; CC50 ([5]; Table S3): 850 µM
COC(=O)CNC(=O)c1c(-c2ccc(OC)cc2)[n+]([O-])c2ccccc2[n+]1[O-] [Compound 4b] | – | – | 157 ± 7.8 | 261 ± 7.8 | 40.6 | 69.8 | 1570 | – | – | – | – | –
COC(=O)CNC(=O)c1c(-c2ccc(C(F)(F)F)cc2)[n+]([O-])c2ccccc2[n+]1[O-] [Compound 4c] | – | – | > 238 | > 238 | 13.2 | 25.9 | 6960 | – | – | – | – | activity against L. amazonensis (in words) [2]: inactive; activity against L. donovani (in words) [4]: inactive
COc1ccc2c(c1)[n+]([O-])c(-c1ccccc1)c(C(=O)NCC(=O)OCc1ccccc1)[n+]2[O-] [Compound 4f, N-(6-Methoxy-1,4-dioxide-3-(phenyl)quinoxaline-2-carbonyl)glycine benzyl ester] | – | – | > 261 | > 261 | 21.9 | 47.9 | – | – | – | – | – | activity against L. amazonensis (in words) [2]: inactive; activity against L. donovani (in words) [4]: inactive
COC(=O)CNC(=O)c1c(-c2ccc(C)cc2)[n+]([O-])c2cc(OC)ccc2[n+]1[O-] [Compound 4j, N-(6-Methoxy-1,4-dioxide-3-(4-methylphenyl)quinoxaline-2-carbonyl)glycine methyl ester] | 12.9 | 24.6 | – | – | – | – | – | 111 ± 4 | 2.9 | 13.8 ± 9.5 | 318.6 ± 0.84 | L. donovani promastigote selectivity index (SI) [4]: 23.2
COC(=O)CNC(=O)c1c(-c2ccc(C(F)(F)F)cc2)[n+]([O-])c2cc(C)ccc2[n+]1[O-] [Compound 4l, N-(6-Methyl-1,4-dioxide-3-(4-trifluoromethylphenyl)quinoxaline-2-carbonyl)glycine methyl ester] | – | – | > 230 | – | 7.2 | 15.5 | 1380 | – | – | – | – | activity against L. amazonensis (in words) [2]: inactive; activity against L. donovani (in words) [4]: inactive
COC(=O)CNC(=O)c1c(-c2ccccc2)[n+]([O-])c2cc(C(F)(F)F)ccc2[n+]1[O-] [Compound 4n, N-(1,4-Dioxide-6-trifluoromethyl-3-phenylquinoxaline-2-carbonyl)glycine methyl ester] | – | – | 97.3 ± 4.3 | 43.5 ± 1.1 | 11.9 | 27.9 | 191 ± 29.3 | – | – | – | – | –
O=C(O)CNC(=O)c1c(-c2ccc(F)cc2)[n+]([O-])c2ccccc2[n+]1[O-] [Compound 5d, 2-((Carboxymethyl)carbamoyl)-3-(4-fluorophenyl)quinoxaline 1,4-dioxide] | – | – | – | – | – | – | – | > 280 | > 3.0 | > 280 | 840 | –
COc1ccc2c(c1)[n+]([O-])c(-c1ccccc1)c(C(=O)NCC(=O)O)[n+]2[O-] [Compound 5f, 2-((Carboxymethyl)carbamoyl)-6-methoxy-3-phenylquinoxaline 1,4-dioxide] | 4.28 | 9.86 | – | – | – | – | – | > 271 | > 30 | > 271 | 8130 | –
COc1ccc2c(c1)[n+]([O-])c(-c1ccc(C(F)(F)F)cc1)c(C(=O)NCC(=O)O)[n+]2[O-] [Compound 5h, 2-((Carboxymethyl)carbamoyl)-6-methoxy-3-(4-(trifluoromethyl)phenyl)quinoxaline 1,4-dioxide] | 16.4 | 22 | – | – | – | – | – | > 229 | > 8 | > 229 | 1830 | –
Cc1ccc2c(c1)[n+]([O-])c(-c1ccc(F)cc1)c(C(=O)NCC(=O)O)[n+]2[O-] [Compound 5m, 2-((Carboxymethyl)carbamoyl)-3-(4-fluorophenyl)-6-methylquinoxaline 1,4-dioxide] | 17.2 | 35.1 | – | – | – | – | – | > 270 | > 30 | > 270 | 8090 | –
COc1ccc2c(c1)[n+]([O-])c(-c1ccc(C)cc1)c(C(=O)O)[n+]2[O-] [Compound 6, 2-Carboxy-6-methoxy-3-(4-tolyl)quinoxaline 1,4-dioxide] | 45 | 76.4 | – | – | – | – | – | 20.5 ± 2.5 | 20.7 | 6.2 ± 0.2 | 424 | IC50 ([3]; Leishmania amazonensis, J774): 31.9 ± 13.2 µM; L. amazonensis amastigote selectivity index (SI) ([3]; SI = CC50 (J774 macrophages)/IC50): 13.3; L. donovani promastigote selectivity index (SI) [4]: 68.4
N[C@@H]1CON=C1O [Cycloserine, reference compound] | – | 13.5 | – | – | – | – | – | – | – | – | – | IC50 [1, 10]: 12.5 µM
CC[C@@H](CO)NCCN[C@@H](CC)CO [Ethambutol, reference compound] | 1.56 | 32.8 | – | – | – | – | – | – | – | – | – | –
NNC(=O)c1ccncc1 [Isoniazid, reference compound] | 0.18 | 0.29 | – | – | – | – | – | – | – | – | – | –
CCc1nc(N)nc(N)c1-c1ccc(Cl)cc1 [Pyrimethamine, reference compound] | – | 75 | – | – | – | – | – | – | – | – | – | IC50 [1, 10]: 37.4 µM
N-(1,4-Dioxide-3-((4,5-dimethoxy-2-nitro-phenyl)quinoxaline-2-carbonyl)glycine benzyl ester [Compound 4e] | – | – | 25.1 ± 0.56 | 34 ± 5.2 | 25.2 | 47.9 | 18.5 ± 3.4 | – | – | – | – | toxicity to macrophages (in words) [5]: highly toxic to macrophages
